Measurements: the NIST ThermoML archive (doi:10.1021/je200721d)
Numbers after ± are expanded uncertainties.

Assay: xn = mol fraction of the nth substance listed
Conditions: Liquid, Vibrating tube method

Compound `CCCCCCCC` [octane] + CCCCCC has a mass density (312.91 K, 1000 kPa, x2 = 0.2199) of 680.43 ± 0.26 kg/m3, a mass density (312.91 K, 2000 kPa, x2 = 0.2199) of 681.31 ± 0.27 kg/m3 and a mass density (312.91 K, 3000 kPa, x2 = 0.2199) of 682.24 ± 0.27 kg/m3. For the same compound, the mass density (312.91 K, 4000 kPa, x2 = 0.2199) was 683.15 ± 0.28 kg/m3, the mass density (312.91 K, 5000 kPa, x2 = 0.2199) was 684.07 ± 0.29 kg/m3 and the mass density (312.91 K, 6000 kPa, x2 = 0.2199) was 684.99 ± 0.3 kg/m3. It also gave a mass density (312.91 K, 7000 kPa, x2 = 0.2199) of 685.92 ± 0.3 kg/m3, a mass density (312.91 K, 8000 kPa, x2 = 0.2199) of 686.87 ± 0.31 kg/m3 and a mass density (312.91 K, 9000 kPa, x2 = 0.2199) of 687.8 ± 0.32 kg/m3. It also gave a mass density (312.91 K, 10000 kPa, x2 = 0.2199) of 688.73 ± 0.33 kg/m3, a mass density (312.91 K, 11000 kPa, x2 = 0.2199) of 689.64 ± 0.34 kg/m3 and a mass density (312.91 K, 12000 kPa, x2 = 0.2199) of 690.55 ± 0.34 kg/m3. It also gave a mass density (312.91 K, 13000 kPa, x2 = 0.2199) of 691.47 ± 0.35 kg/m3, a mass density (312.91 K, 14000 kPa, x2 = 0.2199) of 692.36 ± 0.36 kg/m3 and a mass density (312.91 K, 15000 kPa, x2 = 0.2199) of 693.23 ± 0.37 kg/m3. It also gave a mass density (312.91 K, 16000 kPa, x2 = 0.2199) of 694.09 ± 0.38 kg/m3, a mass density (312.91 K, 17000 kPa, x2 = 0.2199) of 694.93 ± 0.39 kg/m3 and a mass density (312.91 K, 18000 kPa, x2 = 0.2199) of 695.75 ± 0.4 kg/m3. The mass density (312.91 K, 19000 kPa, x2 = 0.2199) was 696.54 ± 0.4 kg/m3, the mass density (312.91 K, 20000 kPa, x2 = 0.2199) was 697.32 ± 0.41 kg/m3 and the mass density (312.91 K, 21000 kPa, x2 = 0.2199) was 698.1 ± 0.42 kg/m3. For the same compound, the mass density (312.91 K, 22000 kPa, x2 = 0.2199) was 698.86 ± 0.43 kg/m3, the mass density (312.91 K, 23000 kPa, x2 = 0.2199) was 699.56 ± 0.44 kg/m3 and the mass density (312.91 K, 24000 kPa, x2 = 0.2199) was 700.29 ± 0.45 kg/m3. It also gave a mass density (312.91 K, 25000 kPa, x2 = 0.2199) of 700.96 ± 0.46 kg/m3, a mass density (313.14 K, 1000 kPa, x2 = 0.1654) of 682.2 ± 0.26 kg/m3 and a mass density (313.14 K, 1000 kPa, x2 = 0.5749) of 666.9 ± 0.27 kg/m3. For the same compound, the mass density (313.14 K, 1000 kPa, x2 = 0.7995) was 655.29 ± 0.27 kg/m3, the mass density (313.14 K, 1000 kPa, x2 = 0.9308) was 647.6 ± 0.27 kg/m3 and the mass density (313.14 K, 2000 kPa, x2 = 0.1654) was 683.1 ± 0.27 kg/m3. The mass density (313.14 K, 2000 kPa, x2 = 0.5749) was 667.85 ± 0.27 kg/m3, the mass density (313.14 K, 2000 kPa, x2 = 0.7995) was 656.27 ± 0.28 kg/m3 and the mass density (313.14 K, 2000 kPa, x2 = 0.9308) was 648.65 ± 0.28 kg/m3. For the same compound, the mass density (313.14 K, 3000 kPa, x2 = 0.1654) was 684.01 ± 0.27 kg/m3, the mass density (313.14 K, 3000 kPa, x2 = 0.5749) was 668.75 ± 0.28 kg/m3 and the mass density (313.14 K, 3000 kPa, x2 = 0.7995) was 657.26 ± 0.29 kg/m3. For the same compound, the mass density (313.14 K, 3000 kPa, x2 = 0.9308) was 649.73 ± 0.29 kg/m3, the mass density (313.14 K, 4000 kPa, x2 = 0.1654) was 684.9 ± 0.28 kg/m3 and the mass density (313.14 K, 4000 kPa, x2 = 0.5749) was 669.74 ± 0.29 kg/m3. It also gave a mass density (313.14 K, 4000 kPa, x2 = 0.7995) of 658.29 ± 0.29 kg/m3, a mass density (313.14 K, 4000 kPa, x2 = 0.9308) of 650.78 ± 0.3 kg/m3 and a mass density (313.14 K, 5000 kPa, x2 = 0.1654) of 685.84 ± 0.29 kg/m3. For the same compound, the mass density (313.14 K, 5000 kPa, x2 = 0.5749) was 670.74 ± 0.3 kg/m3, the mass density (313.14 K, 5000 kPa, x2 = 0.7995) was 659.31 ± 0.3 kg/m3 and the mass density (313.14 K, 5000 kPa, x2 = 0.9308) was 651.85 ± 0.31 kg/m3. It also gave a mass density (313.14 K, 6000 kPa, x2 = 0.1654) of 686.8 ± 0.3 kg/m3, a mass density (313.14 K, 6000 kPa, x2 = 0.5749) of 671.71 ± 0.3 kg/m3 and a mass density (313.14 K, 6000 kPa, x2 = 0.7995) of 660.34 ± 0.31 kg/m3. The mass density (313.14 K, 6000 kPa, x2 = 0.9308) was 652.92 ± 0.32 kg/m3, the mass density (313.14 K, 7000 kPa, x2 = 0.1654) was 687.71 ± 0.3 kg/m3 and the mass density (313.14 K, 7000 kPa, x2 = 0.5749) was 672.72 ± 0.31 kg/m3. For the same compound, the mass density (313.14 K, 7000 kPa, x2 = 0.7995) was 661.38 ± 0.32 kg/m3, the mass density (313.14 K, 7000 kPa, x2 = 0.9308) was 654 ± 0.33 kg/m3 and the mass density (313.14 K, 8000 kPa, x2 = 0.1654) was 688.62 ± 0.31 kg/m3. For the same compound, the mass density (313.14 K, 8000 kPa, x2 = 0.5749) was 673.69 ± 0.32 kg/m3, the mass density (313.14 K, 8000 kPa, x2 = 0.7995) was 662.44 ± 0.33 kg/m3 and the mass density (313.14 K, 8000 kPa, x2 = 0.9308) was 655.08 ± 0.33 kg/m3. For the same compound, the mass density (313.14 K, 9000 kPa, x2 = 0.1654) was 689.54 ± 0.32 kg/m3, the mass density (313.14 K, 9000 kPa, x2 = 0.5749) was 674.66 ± 0.33 kg/m3 and the mass density (313.14 K, 9000 kPa, x2 = 0.7995) was 663.49 ± 0.34 kg/m3. It also gave a mass density (313.14 K, 9000 kPa, x2 = 0.9308) of 656.16 ± 0.34 kg/m3, a mass density (313.14 K, 10000 kPa, x2 = 0.1654) of 690.46 ± 0.33 kg/m3 and a mass density (313.14 K, 10000 kPa, x2 = 0.5749) of 675.65 ± 0.34 kg/m3. For the same compound, the mass density (313.14 K, 10000 kPa, x2 = 0.7995) was 664.53 ± 0.35 kg/m3, the mass density (313.14 K, 10000 kPa, x2 = 0.9308) was 657.23 ± 0.35 kg/m3 and the mass density (313.14 K, 11000 kPa, x2 = 0.1654) was 691.38 ± 0.33 kg/m3. For the same compound, the mass density (313.14 K, 11000 kPa, x2 = 0.5749) was 676.63 ± 0.35 kg/m3, the mass density (313.14 K, 11000 kPa, x2 = 0.7995) was 665.56 ± 0.36 kg/m3 and the mass density (313.14 K, 11000 kPa, x2 = 0.9308) was 658.29 ± 0.36 kg/m3. For the same compound, the mass density (313.14 K, 12000 kPa, x2 = 0.1654) was 692.28 ± 0.34 kg/m3, the mass density (313.14 K, 12000 kPa, x2 = 0.5749) was 677.6 ± 0.36 kg/m3 and the mass density (313.14 K, 12000 kPa, x2 = 0.7995) was 666.56 ± 0.37 kg/m3. For the same compound, the mass density (313.14 K, 12000 kPa, x2 = 0.9308) was 659.33 ± 0.37 kg/m3, the mass density (313.14 K, 13000 kPa, x2 = 0.1654) was 693.17 ± 0.35 kg/m3 and the mass density (313.14 K, 13000 kPa, x2 = 0.5749) was 678.56 ± 0.36 kg/m3. The mass density (313.14 K, 13000 kPa, x2 = 0.7995) was 667.56 ± 0.37 kg/m3, the mass density (313.14 K, 13000 kPa, x2 = 0.9308) was 660.36 ± 0.38 kg/m3 and the mass density (313.14 K, 14000 kPa, x2 = 0.1654) was 694.06 ± 0.36 kg/m3. For the same compound, the mass density (313.14 K, 14000 kPa, x2 = 0.5749) was 679.5 ± 0.37 kg/m3, the mass density (313.14 K, 14000 kPa, x2 = 0.7995) was 668.54 ± 0.38 kg/m3 and the mass density (313.14 K, 14000 kPa, x2 = 0.9308) was 661.38 ± 0.39 kg/m3. For the same compound, the mass density (313.14 K, 15000 kPa, x2 = 0.1654) was 694.94 ± 0.37 kg/m3, the mass density (313.14 K, 15000 kPa, x2 = 0.5749) was 680.41 ± 0.38 kg/m3 and the mass density (313.14 K, 15000 kPa, x2 = 0.7995) was 669.51 ± 0.39 kg/m3. For the same compound, the mass density (313.14 K, 15000 kPa, x2 = 0.9308) was 662.38 ± 0.4 kg/m3, the mass density (313.14 K, 16000 kPa, x2 = 0.1654) was 695.81 ± 0.38 kg/m3 and the mass density (313.14 K, 16000 kPa, x2 = 0.5749) was 681.32 ± 0.39 kg/m3. The mass density (313.14 K, 16000 kPa, x2 = 0.7995) was 670.45 ± 0.4 kg/m3, the mass density (313.14 K, 16000 kPa, x2 = 0.9308) was 663.36 ± 0.41 kg/m3 and the mass density (313.14 K, 17000 kPa, x2 = 0.1654) was 696.65 ± 0.38 kg/m3. It also gave a mass density (313.14 K, 17000 kPa, x2 = 0.5749) of 682.2 ± 0.4 kg/m3, a mass density (313.14 K, 17000 kPa, x2 = 0.7995) of 671.4 ± 0.41 kg/m3 and a mass density (313.14 K, 17000 kPa, x2 = 0.9308) of 664.33 ± 0.42 kg/m3.
